Values after ≈ are worked out from the molar mass of the structure shown.
Test system: Pasteurella multocida
Assay: minimum inhibitory concentration (MIC)
Description: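 Broth microdilution MIC (Sensititre BOPO7F bovine plate, CLSI methods) of 19 antimicrobials against field isolates of P. multocida, M. haemolytica, H. somni (deep nasopharyngeal swabs) and E. coli, Enterococcus spp. (rectal swabs) from weaned dairy heifers. Incubation 16-24 h at 35 C. MIC is the lowest concentration preventing visible growth. Values with <= or > lie at the tested range limits. Trimethoprim-sulfamethoxazole is given as the trimethoprim component of a 1:19 mixture.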

CC1(C)S[C@@H]2[C@H](NC(=O)Cc3ccccc3)C(=O)N2[C@H]1C(=O)O [Penicillin]
Conditions | minimum inhibitory concentration [µg/mL]
isolate (source animal id): 10 | 0.25 (≈ 0.748 µM)
isolate (source animal id): 11 | 0.25 (≈ 0.748 µM)
isolate (source animal id): 12 | 0.25 (≈ 0.748 µM)
isolate (source animal id): 19 | 0.25 (≈ 0.748 µM)
isolate (source animal id): 23 | ≤ 0.12
isolate (source animal id): 26 | 0.25 (≈ 0.748 µM)
isolate (source animal id): 98 | ≤ 0.12
isolate (source animal id): 104 | ≤ 0.12
isolate (source animal id): 115 | ≤ 0.12
isolate (source animal id): 117 | 0.25 (≈ 0.748 µM)
isolate (source animal id): 118 | ≤ 0.12
isolate (source animal id): 121 | 0.25 (≈ 0.748 µM)
isolate (source animal id): 124 | 0.25 (≈ 0.748 µM)
isolate (source animal id): 125 | 0.25 (≈ 0.748 µM)
isolate (source animal id): 128 | ≤ 0.12
isolate (source animal id): 131 | 0.25 (≈ 0.748 µM)
isolate (source animal id): 135 | 0.25 (≈ 0.748 µM)
isolate (source animal id): 136 | 0.25 (≈ 0.748 µM)
isolate (source animal id): 140 | 0.25 (≈ 0.748 µM)
isolate (source animal id): 144 | ≤ 0.12
isolate (source animal id): 146 | ≤ 0.12
isolate (source animal id): 150 | ≤ 0.12
isolate (source animal id): 151 | ≤ 0.12
isolate (source animal id): 153 | ≤ 0.12
isolate (source animal id): 155 | 0.25 (≈ 0.748 µM)
isolate (source animal id): 157 | ≤ 0.12
isolate (source animal id): 160 | ≤ 0.12
isolate (source animal id): 164 | ≤ 0.12
isolate (source animal id): 165 | ≤ 0.12
isolate (source animal id): 167 | ≤ 0.12
isolate (source animal id): 168 | 0.25 (≈ 0.748 µM)
isolate (source animal id): 169 | ≤ 0.12
isolate (source animal id): 170 | > 8
isolate (source animal id): 171 | ≤ 0.12
isolate (source animal id): 172 | ≤ 0.12
isolate (source animal id): 173 | 0.25 (≈ 0.748 µM)
isolate (source animal id): 174 | ≤ 0.12
isolate (source animal id): 175 | ≤ 0.12
isolate (source animal id): 176 | ≤ 0.12
isolate (source animal id): 177 | ≤ 0.12
isolate (source animal id): 178 | ≤ 0.12
isolate (source animal id): 179 | ≤ 0.12
isolate (source animal id): 182 | ≤ 0.12
isolate (source animal id): 192 | ≤ 0.12
isolate (source animal id): 193 | ≤ 0.12
isolate (source animal id): 195 | ≤ 0.12
isolate (source animal id): 196 | ≤ 0.12
isolate (source animal id): 197 | ≤ 0.12
isolate (source animal id): 198 | 0.25 (≈ 0.748 µM)
isolate (source animal id): 199 | ≤ 0.12
isolate (source animal id): 200 | ≤ 0.12
isolate (source animal id): 201 | ≤ 0.12
isolate (source animal id): 203 | ≤ 0.12
isolate (source animal id): 204 | ≤ 0.12
isolate (source animal id): 205 | 0.25 (≈ 0.748 µM)
isolate (source animal id): 206 | ≤ 0.12
isolate (source animal id): 207 | ≤ 0.12
isolate (source animal id): 208 | ≤ 0.12
isolate (source animal id): 209 | ≤ 0.12
isolate (source animal id): 210 | 0.25 (≈ 0.748 µM)
isolate (source animal id): 213 | ≤ 0.12
isolate (source animal id): 216 | ≤ 0.12
isolate (source animal id): 223 | 0.25 (≈ 0.748 µM)
isolate (source animal id): 227 | ≤ 0.12
isolate (source animal id): 229 | ≤ 0.12
isolate (source animal id): 233 | ≤ 0.12
isolate (source animal id): 234 | ≤ 0.12
isolate (source animal id): 237 | ≤ 0.12
isolate (source animal id): 241 | ≤ 0.12
isolate (source animal id): 245 | ≤ 0.12
isolate (source animal id): 247 | ≤ 0.12
isolate (source animal id): 250 | ≤ 0.12
isolate (source animal id): 254 | 0.25 (≈ 0.748 µM)
isolate (source animal id): 255 | ≤ 0.12
isolate (source animal id): 258 | ≤ 0.12
isolate (source animal id): 261 | ≤ 0.12
isolate (source animal id): 262 | ≤ 0.12
isolate (source animal id): 269 | ≤ 0.12
isolate (source animal id): 270 | ≤ 0.12
isolate (source animal id): 274 | ≤ 0.12
isolate (source animal id): 275 | 0.25 (≈ 0.748 µM)
isolate (source animal id): 276 | 0.25 (≈ 0.748 µM)
isolate (source animal id): 277 | ≤ 0.12
isolate (source animal id): 278 | ≤ 0.12
isolate (source animal id): 279 | 0.25 (≈ 0.748 µM)
isolate (source animal id): 280 | 0.25 (≈ 0.748 µM)
isolate (source animal id): 284 | 0.25 (≈ 0.748 µM)
isolate (source animal id): 285 | 0.25 (≈ 0.748 µM)
isolate (source animal id): 287 | 0.25 (≈ 0.748 µM)
isolate (source animal id): 290 | 0.25 (≈ 0.748 µM)
isolate (source animal id): 294 | 0.25 (≈ 0.748 µM)
isolate (source animal id): 295 | 0.25 (≈ 0.748 µM)
isolate (source animal id): 296 | ≤ 0.12
isolate (source animal id): 307 | 0.25 (≈ 0.748 µM)
isolate (source animal id): 310 | 0.25 (≈ 0.748 µM)
isolate (source animal id): 311 | 0.25 (≈ 0.748 µM)
isolate (source animal id): 312 | ≤ 0.12
isolate (source animal id): 313 | 0.25 (≈ 0.748 µM)
isolate (source animal id): 315 | 0.25 (≈ 0.748 µM)
isolate (source animal id): 316 | 0.25 (≈ 0.748 µM)

Source: the supplement of paper PMC8612539
